US9242009B2, “Compositions and methods to treat neurodegenerative diseases” (The General Hospital Corporation, priority 2012, dated 2016)

Legend:
SH-SY5Y cells = assay: Intracellular sulfide levels in SH-SY5Y cells (HPLC); format: cell-based, Human; details: 20 μM, SH-SY5Y
Description: Human neuroblastoma SH-SY5Y cells were cultured in Eagle's medium/Ham's F-12 50/50 Mix (DMEM/F12, Cellgro by Mediatech, Inc.) supplemented with 10% fetal bovine serum (FBS) and 1% penicillin/streptomycin. The cells were seeded into 96 well plates (2×10^4 cells per well) for OGD and measurements of toxicity, 6 cm dishes (5×10^5 cells per dish) for measurements of sulfide and reduced-glutathione (GSH), or 10 cm dishes (1×10^6 cells per dish) for measurements of intracellular calcium. Cell culture medium was replaced every 2 days, and the cultures were maintained at 37° C. in 95% air/5% CO2 in a humidified incubator. Cells were used after reaching 80% confluent.
Concentration of free sulfide in SH-SY5Y cells was measured using high performance liquid chromatography (HPLC) (Tokuda et al. (2012) Antioxidants & Redox Signaling). Briefly, SH-SY5Y cells were seeded into 6 cm dishes (5×10^5 cells per dish). After being 80% confluent, 20 μM H2S donor was added to the dish and incubated at 37° C. Cells were washed with ice-cold Tris-HCl (100 mM, PH 9.5, DTPA 0.1 mM) buffer, scraped, transferred to microfuge tubes, and centrifuged. MBB (10 mM in acetonitrile, 50 μl) was added to 100 μl of supernatant. After 30 minutes of incubation at room temperature in dark, 50 μl of 200 mM 5-sulfosalicylic acid (SSA) was added. After centrifugation, supernatant was analyzed by HPLC. For sulfide levels in medium, after centrifugation, supernatant was used for MBB reaction as above.
In contrast, incubation of SH-SY5Y cells with S-memantine increased intracellular sulfide level more markedly than incubation with ACS48 at all time points after addition (˜10 fold at 4 hours, P<0.001 by two-way ANOVA with Bonferroni post-test). In a separate experiment, we examined whether or not incubation with memantine itself or incubation with ACS48 and memantine would affect intracellular sulfide levels in SH-SY5Y cells.

[1] = tested on: murine primary cortical neurons; assay: Cytotoxicity of H2S donors to murine primary cortical neurons (LDH release); format: cell-based, mice; details: 50 μM; 24 hours; without memantine
Description: A microtiter plate containing cells was centrifuged at 250×g for 10 minutes and the supernatant was used for LDH measurement with LDH Cytotoxicity Detection Kit (Roche). After aspirating the medium, remaining cells were washed with PBS, then, 100 μl of 1% Triton-X was added to each well, followed by incubation at 37° C. for 30 minutes. Medium and lysates were used for LDH measurement at wavelength 492 nm. Percentage of released LDH was calculated with following formula: {LDH (medium)/LDH (medium+cell)×100}. Average value of control (cells without OGD) was deducted as background.

cleaved caspase-3 = assay: Immunoblot of cleaved caspase-3 in SH-SY5Y after OGD; format: cell-based, Human; details: 50 μM added 8 hours after end of OGD; 15 hours OGD, 24 hours reoxygenation
Description: (§1) OGD for SH-SY5Y was performed by placing cells in a hypoxia chamber ([…] Technologies Inc.) for 15 hours, followed by 24 hours of reoxygenation as previously reported (FIG. 3A) (Serra-Pérez et al. (2008) Journal of Neurochemistry 106, 1237-1247). Briefly, medium was replaced with glucose-free RPMI 1640 with L-glutamine (Cellgro by Mediatech, Inc), deoxygenated with anaerobic gas mixture (93% N2-5% CO2-2% H2) for 30 minutes before use. Cells were then placed in a hypoxia chamber, flushed with anaerobic gas mixture (93% N2-5% CO2-2% H2) and incubated at 37° C. […]
(§2) Protein levels in SH-SY5Y were determined by standard immunoblot techniques using primary antibodies (1:1,000, Cell Signaling Technology Inc., Danvers, Mass.) against cleaved caspase-3, caspase-3, phosphorylated Akt at threonine 308, Akt, phosphorylated ERK1/2 at threonine 202 and tyrosine 204, Erk1/2, β-tubulin and phosphorylated tau protein at serine 202 and threonine 205 (1:250; Thermo scientific, MN1020), tau protein (1:1000; Thermo scientific, MN1010). Bound antibody was detected with a horseradish peroxidase-linked antibody directed against rabbit IgG (1:10,000˜1:25,000; Cell Signaling Technology Inc.), or mouse IgG (1:2,000; GE healthcare, NA931V) and was visualized using chemiluminescence with ECL Advance kit (GE healthcare).

[2] = tested on: phosphorylated Akt at threonine 308; assay: Immunoblot of phosphorylated Akt in SH-SY5Y after OGD; format: cell-based, Human; details: 50 μM added 8 hours after end of OGD
[3] = tested on: phosphorylated ERK1/2 at threonine 202 and tyrosine 204; assay: Immunoblot of phosphorylated ERK1/2 in SH-SY5Y after OGD; format: cell-based, Human; details: 50 μM added 8 hours after end of OGD
Description: as §1, §2

SH-SY5Y = assay: Amyloid beta-induced toxicity in SH-SY5Y (LDH release, MTT); format: cell-based, Human; details: 24 hours incubation with Aβ1-42 at 20 μM
Description: FIG. 12A-B is a set of two bar graphs showing cell viability of SH-SY5Y cells exposed to 20 μM amyloid beta (Aβ) and treated with memantine, ACS48, or S-memantine at 20 or 50 μM. Cell viability was estimated by LDH release assay in the left graph and MTT assay in the right graph.

[4] = tested on: murine primary cortical neurons; assay: Amyloid beta-induced toxicity in murine primary cortical neurons (LDH release, MTT); format: cell-based, mice; details: 24 hours incubation with Aβ1-42 at 20 μM
Description: FIG. 13A-B is a set of two bar graphs depicting cell viability of murine primary cortical neurons exposed to 20 μM amyloid beta (Aβ) and treated with memantine, ACS48, or S-memantine at 5, 10, or 30 μM. Cell viability was estimated by LDH release assay in the left graph and MTT assay in the right graph.

Aβ1-42 = details: LPS challenge for 7 days
mice challenged with LPS = assay: LPS-induced cognitive impairment, Morris water-maze

Which Intracellular sulfide levels (SH-SY5Y cells; 37° C.) does the source give for `C[C@]12C[C@@H]3C[C@](C)(C1)C[C@@](NC(=O)c1ccc(-c4cssc4=S)cc1)(C3)C2` [S-memantine, N-((1r,3R,5S,7r)-3,5-dimethyladamantan-1-yl)-4-(3-thioxo-3H-1,2-dithiol-4-yl)-benzamide] here?
The Intracellular sulfide levels was “increased intracellular sulfide levels”.

What about the “Intracellular sulfide level relative to incubation with ACS48” value (SH-SY5Y cells; at 4 hours) of the same compound?
Its value is roughly 10 fold.

What about the “LDH release (cytotoxicity)” value [1] of the same compound?
The value was “did not induce LDH release”.

What about the “Caspase-3 activation after OGD” value (cleaved caspase-3) of the same compound?
Its value is “prevented caspase-3 activation”.

And the “Akt phosphorylation after OGD” value [2]?
The value was “did not affect Akt phosphorylation”.

And the “Dephosphorylation of ERK after OGD” value [3]?
Its value is “attenuated dephosphorylation of ERK”.

What about the “Cell viabilities after Aβ1-42 compared with memantine” value (SH-SY5Y) of the same compound?
The value was “improved cell viabilities more markedly than did memantine”.

What about the “Cell viabilities after Aβ1-42” value (SH-SY5Y; compound 20 or 50 μM) of the same compound?
The value was “improved cell viabilities”.

What about the “Cell viabilities after Aβ1-42 compared with memantine” value [4] of the same compound?
Its value is “improved cell viabilities more markedly than did memantine”.

What about the “Cell viabilities after Aβ1-42” value ([4]; compound 5, 10 or 30 μM) of the same compound?
Its value is “improved cell viabilities”.

And the “Aβ1-42 accumulation in mice cortex, or hippocampus” value (Aβ1-42; 90 μmol/kg pretreatment)?
Its value is “prevented Aβ1-42 accumulation”.

What about the “Prevention of Aβ1-42 accumulation compared with memantine” value (Aβ1-42) of the same compound?
Its value is “prevented Aβ1-42 accumulation more markedly than did memantine”.

What about the “Swimming speed in Morris water-maze test” value (mice challenged with LPS; 90 μmol/kg i.p.) of the same compound?
The value was “did not change it”.

What about the “Latency until getting platform in Morris water-maze test” value (mice challenged with LPS; 90 μmol/kg i.p. 30 min before LPS, 4 hours after LPS-challenge) of the same compound?
The value was “improved latency”.
